Measurements as given in patent US20190239511A1, “Synergistic Combinations Of Monochloramine And Peroxide Compound, And Methods Of Using The Same For Microbial Control” (Buckman Laboratories International, Inc., priority 2018, published 2019).

Test system: bacteria in 35 wt % corn slurry solution
Test: Bacterial growth control in corn slurry, bacteria count and reduction (Example 2, Table 1 and FIG. 5)
Type: cell-based
Procedure: The effect of combined amounts of hydrogen peroxide and monochloramine at other tested addition amounts on bacterial growth control and their addition timing was further studied using laboratory experiments. For this additional study, laboratory experiments were performed using hydrogen peroxide at dosages of 100 ppm and 200 ppm, and monochloramine (“Oxamine”) at dosages of 25 ppm, 50 ppm, 75 ppm, and 100 ppm. The time between peroxide and monochloramine addition was up to 10 minutes (i.e., 0-10 minutes). All experiments were carried out with 35 wt % corn slurry solution.

Compound | % Reduction (100 ppm H2O2 alone) [%] | Bacteria Count (100 ppm H2O2 alone) | % Reduction (200 ppm H2O2 alone) [%] | Bacteria Count (200 ppm H2O2 alone) | % Reduction (25 ppm Oxamine alone) [%] | Bacteria Count (25 ppm Oxamine alone) | % Reduction (50 ppm Oxamine alone) [%] | Bacteria Count (50 ppm Oxamine alone) | % Reduction (75 ppm Oxamine alone) [%] | Bacteria Count (75 ppm Oxamine alone) | % Reduction (100 ppm Oxamine alone) [%] | Bacteria Count (100 ppm Oxamine alone)
OO [H2O2, hydrogen peroxide] | 0.00 | 5.E+06 | 18.37 | 4.E+06 |  |  |  |  |  |  |  | 
NCl [Oxamine, monochloramine] |  |  |  |  | 98.99 | 5.E+04 | 99.93 | 4.E+03 | 99.97 | 1.E+03 | 99.98 | 9.E+02
